Results published in the NIST ThermoML archive (doi:10.1021/acs.jced.6b00121).
Where “and” joins values, the source holds several entries; their conditions need not be identical. Equal entries are not always repeated.

Key:
[1] = 100 kPa, Liquid; for viscosity: Falling or rolling sphere viscometry; for mass density: Vibrating tube method
[2] = xn = mol fraction of the nth substance listed; conditions: 100 kPa, Liquid, x2 = 0; for viscosity: Falling or rolling sphere viscometry; for mass density: Vibrating tube method

CCCCO [butan-1-ol]
[1]
Conditions | mass density [kg/m3] | viscosity [mPa·s]
283.15 K | 817.07 | 4.046
288.15 K | 813.32 | 3.514
293.15 K | 809.55 | 3.066
298.15 K | 805.76 | 2.59
303.15 K | 801.94 | 2.28
308.15 K | 798.09 | 2.015
313.15 K | 794.2 | 1.786
318.15 K | 790.27 | 1.589
323.15 K | 786.3 | 1.427
328.15 K | 782.27 | 1.278
333.15 K | 778.18 | 1.147
338.15 K | 774.03 | 1.032
343.15 K | 769.8 | 0.934
348.15 K | 765.49 | 0.842
353.15 K | 761.12 | 0.762
358.15 K | 756.64 | 0.693
363.15 K | 752.08 | 0.633

CCCO [propan-1-ol]
[1]
Conditions | mass density [kg/m3] | viscosity [mPa·s]
283.15 K | 811.48 | 2.834
288.15 K | 807.54 | 2.489
293.15 K | 803.58 | 2.195
298.15 K | 799.59 | 1.929
303.15 K | 795.58 | 1.714
308.15 K | 791.53 | 1.536
313.15 K | 787.44 | 1.372
318.15 K | 783.304 | 1.229
323.15 K | 779.11 | 1.113
328.15 K | 774.86 | 1.002
333.15 K | 770.54 | 0.905
338.15 K | 766.15 | 0.819
343.15 K | 761.67 | 0.752
348.15 K | 757.09 | 0.685
353.15 K | 752.44 | 0.625
358.15 K | 747.65 | 0.574
363.15 K | 742.77 | 0.528

CCCCCCO [hexan-1-ol]
[1]
Conditions | mass density [kg/m3] | viscosity [mPa·s]
283.15 K | 825.94 | 7.487
288.15 K | 822.42 | 6.307
293.15 K | 818.88 | 5.348
298.15 K | 815.32 | 4.555
303.15 K | 811.74 | 3.903
308.15 K | 808.13 | 3.361
313.15 K | 804.5 | 2.912
318.15 K | 800.83 | 2.538
323.15 K | 797.12 | 2.228
328.15 K | 793.37 | 1.97
333.15 K | 789.57 | 1.744
338.15 K | 785.72 | 1.553
343.15 K | 781.83 | 1.39
348.15 K | 777.86 | 1.255
353.15 K | 773.86 | 1.125
358.15 K | 769.78 | 1.018
363.15 K | 765.64 | 0.925

CCCO [propan-1-ol] + CCCCCCCCCCC
[2]
Conditions | mass density [kg/m3] | viscosity [mPa·s]
283.15 K | 811.48 | 2.834
288.15 K | 807.54 | 2.489
293.15 K | 803.58 | 2.195
298.15 K | 799.59 | 1.929
303.15 K | 795.58 | 1.714
308.15 K | 791.53 | 1.536
313.15 K | 787.44 | 1.372
318.15 K | 783.304 | 1.229
323.15 K | 779.11 | 1.113
328.15 K | 774.86 | 1.002
333.15 K | 770.54 | 0.905
338.15 K | 766.15 | 0.819
343.15 K | 761.67 | 0.752
348.15 K | 757.09 | 0.685
353.15 K | 752.44 | 0.625
358.15 K | 747.65 | 0.574
363.15 K | 742.77 | 0.528

CCCCCO [pentan-1-ol] + CCCCCCCCCCC
[2]
Conditions | mass density [kg/m3] | viscosity [mPa·s]
283.15 K | 821.9 | 5.431
288.15 K | 818.3 | 4.655
293.15 K | 814.68 | 4.011
298.15 K | 811.03 | 3.474
303.15 K | 807.37 | 3.023
308.15 K | 803.67 | 2.642
313.15 K | 799.94 | 2.32
318.15 K | 796.17 | 2.045
323.15 K | 792.36 | 1.81
328.15 K | 788.5 | 1.608
333.15 K | 784.59 | 1.434
338.15 K | 780.62 | 1.283
343.15 K | 776.58 | 1.152
348.15 K | 772.49 | 1.038
353.15 K | 768.33 | 0.939
358.15 K | 764.08 | 0.852
363.15 K | 759.77 | 0.776

CCCCO [butan-1-ol] + CCCCCCCCCCC
[2]
Conditions | mass density [kg/m3] | viscosity [mPa·s]
283.15 K | 817.07 | 4.046
288.15 K | 813.32 | 3.514
293.15 K | 809.55 | 3.066
298.15 K | 805.76 | 2.59
303.15 K | 801.94 | 2.28
308.15 K | 798.09 | 2.015
313.15 K | 794.2 | 1.786
318.15 K | 790.27 | 1.589
323.15 K | 786.3 | 1.427
328.15 K | 782.27 | 1.278
333.15 K | 778.18 | 1.147
338.15 K | 774.03 | 1.032
343.15 K | 769.8 | 0.934
348.15 K | 765.49 | 0.842
353.15 K | 761.12 | 0.762
358.15 K | 756.64 | 0.693
363.15 K | 752.08 | 0.633

CCCCCO [pentan-1-ol]
[1]
Conditions | mass density [kg/m3] | viscosity [mPa·s]
283.15 K | 821.9 | 5.431
288.15 K | 818.3 | 4.655
293.15 K | 814.68 | 4.011
298.15 K | 811.03 | 3.474
303.15 K | 807.37 | 3.023
308.15 K | 803.67 | 2.642
313.15 K | 799.94 | 2.32
318.15 K | 796.17 | 2.045
323.15 K | 792.36 | 1.81
328.15 K | 788.5 | 1.608
333.15 K | 784.59 | 1.434
338.15 K | 780.62 | 1.283
343.15 K | 776.58 | 1.152
348.15 K | 772.49 | 1.038
353.15 K | 768.33 | 0.939
358.15 K | 764.08 | 0.852
363.15 K | 759.77 | 0.776

CCCCCCCCCCC [undecane]
[1]
Conditions | mass density | viscosity [mPa·s]
283.15 K | 747.78 kg/m3 | 1.371
288.15 K | 744.06 kg/m3 | 1.249
293.15 K | 740.35 kg/m3 | 1.145
298.15 K | 736.64 kg/m3 | 1.062
303.15 K | 732.93 kg/m3 | 0.982
308.15 K | 729.23 kg/m3 | 0.91
313.15 K | 725.53 kg/m3 | 0.847
318.15 K | 721.82 kg/m3 and 721.818 kg/m3 | 0.79
323.15 K | 718.11 kg/m3 | 0.74
328.15 K | 714.39 kg/m3 | 0.692
333.15 K | 710.68 kg/m3 | 0.651
338.15 K | 706.95 kg/m3 | 0.615
343.15 K | 703.22 kg/m3 | 0.58
348.15 K | 699.47 kg/m3 | 0.549
353.15 K | 695.72 kg/m3 | 0.522
358.15 K | 691.96 kg/m3 | 0.497
363.15 K | 688.18 kg/m3 | 0.475

CCCCCCO [hexan-1-ol] + CCCCCCCCCCC
[2]
Conditions | mass density [kg/m3] | viscosity [mPa·s]
283.15 K | 825.94 | 7.487
288.15 K | 822.42 | 6.307
293.15 K | 818.88 | 5.348
298.15 K | 815.32 | 4.555
303.15 K | 811.74 | 3.903
308.15 K | 808.13 | 3.361
313.15 K | 804.5 | 2.912
318.15 K | 800.83 | 2.538
323.15 K | 797.12 | 2.228
328.15 K | 793.37 | 1.97
333.15 K | 789.57 | 1.744
338.15 K | 785.72 | 1.553
343.15 K | 781.83 | 1.39
348.15 K | 777.86 | 1.255
353.15 K | 773.86 | 1.125
358.15 K | 769.78 | 1.018
363.15 K | 765.64 | 0.925
